In test [1] the target is T1, IDO (Homo sapiens, UniProt P14902). Kind of test: LLE_IDO_ABS_DR (IDO assay).
Test [2] has as its target T1, IDO. Kind of test: Kynurenine assay in Hela cells stimulated with IFN-γ to express IDO. It is filed as cell-based. More on the design: endogenous in cells; host or cells: HeLa (ATCC CCL-2), stimulated with human recombinant IFN-gamma. The conditions noted are these: 20 h, read-out: Hela Kyurenine (IC50). On the procedure:
IFNg (R&D, 28-IF-100)—resuspend at 10 ug/mL in PBS with 0.1% BSA 30% TCA
Ehrlich reagent (2% w/v p-dimethylaminobenzaldehyde in glacial acetic acid)
Cell Titer 96 Aqueous Non-Radioactive Cell Proliferation Assay, MTS (Promega, Cat # G5430)
Cell Lines and Culture Conditions
Hela cancer cell lines were acquired from the American Type Culture Collection. Cells were maintained in phenol red free-RPMI1640 medium containing high glucose and L-glutamine (Invitrogen) supplemented with 10% fetal bovine serum (FBS; Invitrogen). Cell cultures were incubated at 37° C., 5% CO2, and 100% humidity.
Cell Treatment and Kynurenine Assay
Hela cells were seeded on 96-well plates (40,000 cells per well) and allowed to adhere for 5-6 hours. Cells were then treated with vehicle (DMSO) or with IDO inhibitor at a top dose of 30 μM (3-fold dilution all the way down to 1.5 nM). A final concentration of 100 ng/mL of human recombinant IFN-γ (R&D, 28-IF-100) was immediately added to the cells to stimulate IDO expression. Treated cells were then incubated for 20 hours at 37° C. At the end of the 20 h incubation, reactions were terminated by the addition of 30% TCA to each well. Plates were incubated for 30 minutes at 50° C. to hydrolyze N-formylkynurenine to kynurenine. Cells were centrifuged 10 minutes at 2400 rpm. 100 ul of supernatants were transferred to new 96 flat well plates and mixed with 100 ul Ehrlich reagent. The resulting solution was incubated 10 minutes at RT. Absorbance at 490 nm was read using Spectra Max 384 (Molecular Devices).

The target in a further test is T2, Human IDO1 (Homo sapiens, UniProt P14902).
T2 construct: expressed in transfected cells; host or cells: HEK293
Nature of the test: IDO Kynurenine Assay with Human IDO1/HEK293 Cells. It is filed as cell-based. The conditions noted are these: read-out: HEK human IDO-1 (IC50). The procedure, abridged: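 HEK293 cells stably expressing human IDO1, in phenol red-free RPMI/10% FBS, exposed to compound for 20 h at 37 °C. Stopped with 0.2% TCA (50 °C, 30 min); kynurenine in supernatant detected with Ehrlich reagent, absorbance 490 nm.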

T2 sequence (P14902 whole entry): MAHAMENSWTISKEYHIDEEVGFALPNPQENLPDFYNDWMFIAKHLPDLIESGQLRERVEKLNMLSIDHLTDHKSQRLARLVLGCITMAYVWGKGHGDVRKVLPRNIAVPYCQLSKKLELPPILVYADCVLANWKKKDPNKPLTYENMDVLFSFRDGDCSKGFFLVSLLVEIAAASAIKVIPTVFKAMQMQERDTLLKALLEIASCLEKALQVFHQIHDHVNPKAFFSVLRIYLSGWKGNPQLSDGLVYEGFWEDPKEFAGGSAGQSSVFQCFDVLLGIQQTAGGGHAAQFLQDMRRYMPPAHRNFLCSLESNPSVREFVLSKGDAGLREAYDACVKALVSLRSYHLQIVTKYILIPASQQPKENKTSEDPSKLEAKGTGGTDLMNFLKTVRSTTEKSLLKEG
T1 sequence (P14902 whole entry): as above

One may read the IC50 as the concentration that inhibits the measured activity by half. On to `CN(c1ccc(-c2ccccc2-c2nnn[nH]2)cc1NC(=O)Nc1ccc(C(F)(F)F)cc1)C1CCCCC1` [Example 2, 1-(4-(Cyclohexyl(methyl)amino)-2′-(1H-tetrazol-5-yl)biphenyl-3-yl)-3-(4-(trifluoromethyl)phenyl)urea], for which the IC50 against IDO [1] came out at 90 nM; on IDO [2], 20 nM. With `Cc1ccc(NC(=O)Nc2cc(-c3ccccc3-c3nnn[nH]3)ccc2N(C)C2CCCC2)cc1` [Example 3, 1-(4-(Cyclopentyl(methyl)amino)-2′-(1H-tetrazol-5-yl)biphenyl-3-yl)-3-p-tolylurea], the figures for the IC50 against IDO [1] and at IDO [2] were 60 nM and 10 nM, respectively. The matching figures for `CN(c1ncc(-c2ccccc2-c2nnn[nH]2)cc1NC(=O)Nc1ccccc1F)C1CCCCC1` [Example 37, 1-(5-(2-(1H-Tetrazol-5-yl)phenyl)-2-(cyclohexyl(methyl)amino)pyridin-3-yl)-3-(2-fluorophenyl)urea]: 40 nM and 10 nM. For `COc1ccc(-c2ccc(N(C)C3CCCCC3)c(NC(=O)Nc3ccccc3Cl)c2)cc1C(=O)O` [Example 42, 3′-(3-(2-chlorophenyl)ureido)-4′-(cyclohexyl(methyl)amino)-4-methoxybiphenyl-3-carboxylic acid], at IDO [2], the IC50 amounted to 1170 nM.

Consider `COc1ccc(-c2ccc(N(C)C3CCCCC3)c(NC(=O)Nc3ccc(C)cc3)c2)cc1C(=O)O` [Example 43, 4′-(cyclohexyl (methyl)amino)-4-methoxy-3′-(3-p-tolylureido)biphenyl-3-carboxylic acid], for which the IC50 on IDO [2] is 1430 nM. For the compound `Cc1ccc(NC(=O)Nc2cc(-c3ccccc3-c3nnn[nH]3)ccc2N(C)C2CCCCC2)cc1` [Example 44, 1-(4-(cyclohexyl (methyl)amino)-2′-(1H-tetrazol-5-yl)biphenyl-3-yl)-3-p-tolylurea], the IC50 is 7.93 nM at IDO [1] and 1.72 nM at IDO [2]. The matching figures for `CN(c1ccc(-c2ccccc2-c2nnn[nH]2)cc1NC(=O)Nc1ccccc1Cl)C1CCCCC1` [Example 45, 1-(2-chlorophenyl)-3-(4-(cyclohexyl (methyl)amino)-2′-(1H-tetrazol-5-yl)biphenyl-3-yl)urea]: 60 nM and 10 nM. The matching figures for `Cc1ccc(NC(=O)Nc2cc(-c3ccccc3-c3nnn[nH]3)ccc2NC2CCCCC2)cc1` [Example 46, 1-(4-(cyclohexylamino)-2′-(1H-tetrazol-5-yl)biphenyl-3-yl)-3-p-tolylurea]: 130 nM and 90 nM. The matching figures for `Cc1ccc(NC(=O)Nc2cc(-c3ccccc3-c3nnn[nH]3)ccc2N2CCC[C@@H]3CCCC[C@@H]32)cc1` [Example 47, 1-(4-((4aS,8aS)-octahydroquinolin-1(2H)-yl)-2′-(1H-tetrazol-5-yl)biphenyl-3-yl)-3-p-tolylurea]: 40 nM and 10 nM. As to `Cc1ccc(NC(=O)Nc2cc(-c3ccccc3C(=O)O)ccc2NC2CCCCC2)cc1` [Example 48, 4′-(cyclohexyl-amino)-3′-(3-p-tolylureido)biphenyl-2-carboxylic acid], the figures for the IC50 against IDO [1] and on IDO [2] were 500 nM and 850 nM, respectively. Regarding `Cc1ccc(NC(=O)Nc2cc(-c3ccccc3C(=O)O)ccc2N(C)C2CCOCC2)cc1` [Example 51, 4′-(methyl(tetra-hydro-2H-pyran-4-yl)amino)-3′-(3-p-tolylureido)biphenyl-2-carboxylic acid], the IC50 on IDO [2] was determined as 2130 nM. For `Cc1ccc(NC(=O)Nc2cc(-c3ccccc3-c3nnn[nH]3)ccc2N(CC(C)C)C2CCOCC2)cc1` [Example 379], the IC50 on Human IDO1 was 30 nM; at IDO [1] it was 20 nM. As for `Cc1ccc(NC(=O)Nc2cc(-c3cc(F)ccc3C(=O)O)ccc2N(CC(C)C)CC2CC(F)(F)C2)cc1` [Example 380], the IC50 on Human IDO1 worked out at 70 nM; at IDO [1] it was 50 nM. For the compound `Cc1cc(NC(=O)Nc2cc(-c3ccccc3-c3nnn[nH]3)ccc2N(CC(C)C)CC2CC(F)(F)C2)on1` [Example 382], the IC50 at Human IDO1 stood at 350 nM; at IDO [1], 500 nM. In the same order, the values of `Cc1ccc(NC(=O)Nc2cc(-c3ccccc3-c3nnn[nH]3)ccc2N2C[C@@H]3C[C@H]2CN3c2ccc(F)cc2)cc1` [Example 383] are 130 nM and 70 nM. Take `CC(C)CN(CC1CC(F)(F)C1)c1ccc(-c2ccccc2-c2nnn[nH]2)cc1NC(=O)Nc1cc(C(C)C)no1` [Example 384]: the IC50 on Human IDO1 amounted to 1890 nM; on IDO [1], 1640 nM. The matching figures for `C=C(C)CN(CC(F)(F)F)c1ccc(-c2ccccc2-c2nnn[nH]2)cc1NC(=O)Nc1ccc(C)cc1` [Example 472]: 9.13 nM and 10 nM.

With `C=C(C)CN(CC(F)(F)F)c1ccc(-c2cc(F)ccc2C(=O)O)cc1NC(=O)Nc1ccc(C)cc1` [Example 473], the half-maximal inhibitory concentration (IC50) came to 60 nM at Human IDO1 and 70 nM against IDO [1]. In the same order, the values of `Cc1ccc(NC(=O)Nc2cc(-c3cc(F)ccc3-c3nnn[nH]3)ccc2N(CC(C)C)CC(C)C)cc1` [Example 483] are 7.33 nM and 6.12 nM. The matching figures for `CC(C)CN(CC(C)C)c1ccc(-c2cc(F)ccc2-c2nnn[nH]2)cc1NC(=O)Nc1ccccc1F` [Example 484]: 10 nM and 2.5 nM. The matching figures for `Cc1ccc(NC(=O)Nc2cc(-c3ccccc3-c3nnn[nH]3)ccc2N(CCC(F)(F)F)Cc2ccc(F)cc2C(F)(F)F)cc1` [Example 502, 1-(4-((4-fluoro-2-(trifluoromethyl)benzyl)(3,3,3-trifluoropropyl)amino)-2′-(1H-tetrazol-5-yl)-[1,1′-biphenyl]-3-yl)-3-(p-tolyl)urea]: 20 nM and 5.01 nM. Take `O=C(Nc1ccc(OC(F)(F)F)cc1)Nc1cc(-c2ccccc2-c2nnn[nH]2)ccc1N(CCC(F)(F)F)Cc1ccc(OC(F)(F)F)cc1` [Example 503, 1-(2′-(1H-Tetrazol-5-yl)-4-((4-(trifluoromethoxy)benzyl)(3,3,3-trifluoropropyl)amino)-[1,1′-biphenyl]-3-yl)-3-(4-(trifluoromethoxy)phenyl)urea]: the IC50 at Human IDO1 turned out to be 10 nM; at IDO [1], 2.24 nM. Consider `O=C(Nc1ccc(F)cc1F)Nc1cc(-c2ccccc2-c2nnn[nH]2)ccc1N(CCC(F)(F)F)Cc1ccc(OC(F)(F)F)cc1` [Example 504, 1-(2′-(1H-Tetrazol-5-yl)-4-((4-(trifluoromethoxy)benzyl)(3,3,3-trifluoropropyl)amino)-[1,1′-biphenyl]-3-yl)-3-(2,4-difluorophenyl)urea], for which the IC50 at Human IDO1 was 5.14 nM; at IDO [1], 0.4 nM.

`Cc1ccc(NC(=O)Nc2cc(-c3ccccc3C(=O)O)ccc2N(CC(C)C)C2CCC(F)(F)CC2)cc1` [Example 512, 4′-((4,4-Difluorocyclohexyl)(isobutyl)amino)-3′-(3-(p-tolyl)ureido)-[1,1′-biphenyl]-2-carboxylic acid]: the results for the concentration for half-maximal inhibition (IC50) on Human IDO1 and at IDO [1] were 50 nM and 2.88 nM, respectively. The matching figures for `CC(C)CN(c1ccc(-c2ccccc2-c2nnn[nH]2)cc1NC(=O)Nc1ccc(OC(F)(F)F)cc1)C1CCC(F)(F)CC1` [Example 514, 1-(4((4,4-Difluorocyclohexyl)(isobutyl)amino)-2′-(1H-tetrazol-5-yl)-[1,1′-biphenyl]-3-yl)-3-(4-(trifluoromethoxy)phenyl)urea]: 20 nM and 10 nM.
